Patent US20200316064A1, “CYCLIN-DEPENDENT KINASE 2 BIOMARKERS AND USES THEREOF” (Incyte Corporation, priority 2019, published 2020)

Target: T1, CDK2/Cyclin E1 (Homo sapiens, UniProt P24941)
T1 construct: utilize full-length human CDK2 co-expressed as N-terminal GST-tagged protein; GST (N); purchased Carna 04-165; host or cells: baculovirus expression system
Experiment: CDK2/Cyclin E1 HTRF enzyme activity assay (Example A)
Type: biochemical
Conditions: 1 mM ATP
Protocol: CDK2/Cyclin E1 enzyme activity assays utilize full-length human CDK2 co-expressed as N-terminal GST-tagged protein with FLAG-Cyclin E1 in a baculovirus expression system (Carna Product Number 04-165). Assays are conducted in white 384-well polystyrene plates in a final reaction volume of 8 μL. CDK2/Cyclin E1 (0.25 nM) is incubated with compounds (40 nL serially diluted in DMSO) in the presence of ATP (50 μM or 1 mM) and 50 nM ULight™-labeled eIF4E-binding protein 1 (THR37/46) peptide (PerkinElmer) in assay buffer (containing 50 mM HEPES pH 7.5, 1 mM EGTA, 10 mM MgC2, 2 mM DTT, 0.05 mg/mL BSA, and 0.01% Tween 20) for 60 minutes at room temperature. The reactions are stopped by the addition of EDTA and Europium-labeled anti-phospho-4E-BP1 antibody (PerkinElmer), for a final concentration of 15 mM and 1.5 nM, respectively. HTRF signals are read after 1 hour at room temperature on a PHERAstar FS plate reader (BMG Labtech). Data is analyzed with IDBS XLFit and GraphPad Prism 5.0 software using a three or four parameter dose response curve to determine IC50 for each compound.

IC50 [nM] | Compound
100 to 500 | CC1(C)Cc2cnc(NC3CCN(S(C)(=O)=O)CC3)nc2N(c2ccccc2)C1=O [Example A3, 6,6-dimethyl-2-((1-(methylsulfonyl)piperidin-4-yl)amino)-8-phenyl-5,8-dihydropyrido[2,3-d]pyrimidin-7(6H)-one]
50 to 100 | CCC(C(F)F)N1C(=O)C(C)(C)Cc2cnc(NC3CCN(S(C)(=O)=O)CC3)nc21 (racemic) [Example A4, 8-(1,1-difluorobutane-2-yl)-6,6-dimethyl-2-((1-(methylsulfonyl)piperidin-4-yl)amino)-5,8-dihydropyrido[2,3-d]pyrimidin-7(6H)-one]
≤ 50 | O=C1N(C2CCCC2)c2nc(NC3CCN(S(=O)(=O)c4cccnc4)CC3)ncc2C12CC2 [Example B5, 7′-cyclopentyl-2′-((1-(pyridin-3-ylsulfonyl)piperidin-4-yl)amino)spiro[cyclopropane-1,5′-pyrrolo[2,3-d]pyrimidin]-6′(7′H)-one]
≤ 50 | Cn1cc(S(=O)(=O)N2CCC(Nc3ncc4c(n3)N(C3CCCC3)C(=O)C43CC3)CC2)cn1 [Example B7, 7′-cyclopentyl-2′-((1-((1-methyl-1H-pyrazol-4-yl)sulfonyl)piperidin-4-yl)amino)spiro[cyclopropane-1,5′-pyrrolo[2,3-d]pyrimidin]-6′(7′H)-one]
≤ 50 | O=C1N(c2cc3c(cc2Cl)CNCC3)c2nc(NC3CCN(S(=O)(=O)c4ncc[nH]4)CC3)ncc2C12CC2 [Example B18, 2′-((1-((1H-imidazol-2-yl)sulfonyl)piperidin-4-yl)amino)-7′-(7-chloro-1,2,3,4-tetrahydroisoquinolin-6-yl)spiro[cyclopropane-1,5′-pyrrolo[2,3-d]pyrimidin]-6′(7′H)-one]
≤ 50 | O=C1N([C@@H]2CCC[C@@H](O)C2)c2nc(NC3CCN(S(=O)(=O)c4cccc(N5CCC5)n4)CC3)ncc2C12CC2 [Example B13, 2′-((1-((6-(azetidin-1-yl)pyridin-2-yl)sulfonyl)piperidin-4-yl)amino)-7′-((1R,3R)-3-hydroxycyclohexyl)spiro[cyclopropane-1,5′-pyrrolo[2,3-d]pyrimidin]-6′(7′H)-one]
≤ 50 | CCN1CC(n2cc(S(=O)(=O)N3CCC(Nc4ncc5c(n4)N([C@@H](C)C4CC4)C(=O)C54CC4)CC3)cn2)C1 [Example B16, (S)-7′-(1-cyclopropylethyl)-2′-((1-((1-(1-ethylazetidin-3-yl)-1H-pyrazol-4-yl)sulfonyl)piperidin-4-yl)amino)spiro[cyclopropane-1,5′-pyrrolo[2,3-d]pyrimidin]-6′(7′H)-one]
≤ 50 | C[C@@]1(O)CCC[C@H]1N1C(=O)C2(CC2)c2cnc(NC3CCN(S(=O)(=O)c4ncc[nH]4)CC3)nc21 (relative stereo) [Example B17, 2′-((1-((1H-imidazol-2-yl)sulfonyl)piperidin-4-yl)amino)-7′-((trans)-2-hydroxy-2-methylcyclopentyl)spiro[cyclopropane-1,5′-pyrrolo[2,3-d]pyrimidin]-6′(7′H)-one]
≤ 50 | Cn1cc(S(=O)(=O)N2CCC(Nc3ncc4c(n3)N([C@@H]3CCC[C@@H](O)C3)C(=O)C43CC3)CC2)cn1 [Example B12, 7′-((1R,3R)-3-hydroxycyclohexyl)-2′-((1-((1-methyl-1H-pyrazol-4-yl)sulfonyl)piperidin-4-yl)amino)spiro[cyclopropane-1,5′-pyrrolo[2,3-d]pyrimidin]-6′(7′H)-one]
≤ 50 | CC1(C)Cc2cnc(NC3CCN(S(C)(=O)=O)CC3)nc2N(C2CCCC2)C1=O [Example A2, 8-cyclopentyl-6,6-dimethyl-2-((1-(methylsulfonyl)piperidin-4-yl)amino)-5,8-dihydropyrido[2,3-d]pyrimidin-7(6H)-one]
50 to 100 | O=C1N(C2CCCC2)c2nc(NC3CCN(S(=O)(=O)c4ccc(Cl)cc4)CC3)ncc2C12CC2 [Example B6, 2′-((1-((4-chlorophenyl)sulfonyl)piperidin-4-yl)amino)-7′-cyclopentylspiro[cyclopropane-1,5′-pyrrolo[2,3-d]pyrimidin]-6′(7′H)-one]
